Assay results from US20240309005A1 (priority 2021, published 2024).
≈ marks a conversion by molar mass, not a printed value.

Test: physchem
Details: 25 °C, kinetic from dmso stock

| solubility at 2 h (pH 5, fessif) | solubility at 2 h (pH 7.4, aqueous buffer) | SMILES |
| --- | --- | --- |
| 279 µM (≈ 127 µg/mL) | 290 µM (≈ 132 µg/mL) | C=CS(=O)(=O)Nc1ccc(-c2nc(OC3CCN(C(C)C)CC3)c3c(C)n[nH]c3n2)cc1 [Compound 1, N-(4-(4-((1-isopropylpiperidin-4-yl)oxy)-3-methyl-1H-pyrazolo[3,4-d]pyrimidin-6-yl)phenyl)ethenesulfonamide] |
| 325 µM (≈ 173 µg/mL) | 19 µM (≈ 10.1 µg/mL) | Cc1n[nH]c2nc(-c3ccc(NS(=O)(=O)c4ccc(C#N)cc4)cc3)nc(OC3CCN(C(C)C)CC3)c12 [Compound 3, 4-cyano-N-(4-(4-((1-isopropylpiperidin-4-yl)oxy)-3-methyl-1H-pyrazolo[3,4-d]pyrimidin-6-yl)phenyl)benzenesulfonamide] |
| 17.6 µM (≈ 9.43 µg/mL) | 293 µM (≈ 157 µg/mL) | Cc1n[nH]c2nc(-c3ccc(NS(=O)(=O)c4ccc(CN)cc4)cc3)nc(OC3CCN(C(C)C)CC3)c12 [Compound 4, 4-(aminomethyl)-N-(4-(4-((1-isopropylpiperidin-4-yl)oxy)-3-methyl-1H-pyrazolo[3,4-d]pyrimidin-6-yl)phenyl)benzenesulfonamide] |
| 315 µM (≈ 149 µg/mL) | 40 µM (≈ 18.9 µg/mL) | Cc1n[nH]c2nc(-c3ccc(NS(=O)(=O)C(C)C)cc3)nc(OC3CCN(C(C)C)CC3)c12 [Compound 5, N-(4-(4-((1-isopropylpiperidin-4-yl)oxy)-3-methyl-1H-pyrazolo[3,4-d]pyrimidin-6-yl)phenyl)propane-2-sulfonamide] |
| 258 µM (≈ 133 µg/mL) | 299 µM (≈ 154 µg/mL) | Cc1n[nH]c2nc(-c3ccc(NS(=O)(=O)N4CCCCC4)cc3)nc(OC3CCN(C(C)C)CC3)c12 [Compound 6, N-(4-(4-((1-isopropylpiperidin-4-yl)oxy)-3-methyl-1H-pyrazolo[3,4-d]pyrimidin-6-yl)phenyl)piperidine-1-sulfonamide] |
| 91 µM (≈ 46 µg/mL) | 0.23 µM (≈ 0.116 µg/mL) | Cc1n[nH]c2nc(-c3ccc(NS(=O)(=O)c4cc(Cl)ccc4F)cc3)nc(OCCN(C)C)c12 [Compound 8, 5-chloro-N-(4-(4-(2-(dimethylamino)ethoxy)-3-methyl-1H-pyrazolo[3,4-d]pyrimidin-6-yl)phenyl)-2-fluorobenzenesulfonamide] |
| 289 µM (≈ 146 µg/mL) | 8.5 µM (≈ 4.28 µg/mL) | Cc1n[nH]c2nc(-c3ccc(NS(=O)(=O)c4cc(Cl)ccc4F)cc3)nc(NCCN(C)C)c12 [Compound 9, 5-chloro-N-(4-(4-((2-(dimethylamino)ethyl)amino)-3-methyl-1H-pyrazolo[3,4-d]pyrimidin-6-yl)phenyl)-2-fluorobenzenesulfonamide] |
| 33 µM (≈ 18.5 µg/mL) | 2.5 µM (≈ 1.4 µg/mL) | Cc1n[nH]c2nc(-c3cnc(NS(=O)(=O)c4cc(Cl)ccc4F)nc3)nc(OC3CCN(C(C)C)CC3)c12 [Compound 12, 5-chloro-2-fluoro-N-(5-(4-((1-isopropylpiperidin-4-yl)oxy)-3-methyl-1H-pyrazolo[3,4-d]pyrimidin-6-yl)pyrimidin-2-yl) benzenesulfonamide] |
| 5.81 µM (≈ 3.04 µg/mL) | < 0.12 µM | Cc1n[nH]c2nc(-c3ccc(NS(=O)(=O)c4cc(Cl)ccc4F)cc3)nc(NCc3ccncc3)c12 [Compound 13, 5-chloro-2-fluoro-N-(4-(3-methyl-4-((pyridin-4-ylmethyl)amino)-1H-pyrazolo[3,4-d]pyrimidin-6-yl)phenyl)benzenesulfonamide] |
| 202 µM (≈ 107 µg/mL) | 1.12 µM (≈ 0.595 µg/mL) | Cc1n[nH]c2nc(-c3ccc(NS(=O)(=O)c4cc(Cl)ccc4F)cc3)nc(OC3CN(C(C)C)C3)c12 [Compound 17, 5-chloro-2-fluoro-N-(4-[4-[(1-isopropylazetidin-3-yl)oxy]-3-methyl-1H-pyrazolo[3,4-d]pyrimidin-6-yl]phenyl)benzenesulfonamide] |
| 277 µM (≈ 134 µg/mL) | 82 µM (≈ 39.6 µg/mL) | Cc1n[nH]c2nc(-c3ccc(NS(=O)(=O)c4ccccn4)cc3)nc(NCCN(C)CCO)c12 [Compound 20] |
| 302 µM (≈ 146 µg/mL) | 2.26 µM (≈ 1.09 µg/mL) | Cc1n[nH]c2nc(-c3ccc(NS(=O)(=O)c4cccnc4)cc3)nc(NCCN(C)CCO)c12 [Compound 21, N-[4-[4-([2-[(2-hydroxyethyl)(methyl)amino]ethyl]amino)-3-methyl-1H-pyrazolo[3,4-d]pyrimidin-6-yl]phenyl]pyridine-3-sulfonamide] |
| 301 µM (≈ 160 µg/mL) | 15.6 µM (≈ 8.27 µg/mL) | Cc1n[nH]c2nc(-c3ccc(NS(=O)(=O)c4cc(Cl)ccc4F)cc3)nc(NC3CN(C(C)C)C3)c12 [Compound 25, 5-chloro-2-fluoro-N-(4-(4-((1-isopropylazetidin-3-yl)amino)-3-methyl-1H-pyrazolo[3,4-d]pyrimidin-6-yl)phenyl)benzenesulfonamide] |
| 285 µM (≈ 156 µg/mL) | 5.1 µM (≈ 2.78 µg/mL) | Cc1n[nH]c2nc(-c3ccc(NS(=O)(=O)c4cc(Cl)ccc4F)cc3)nc(NCCN3CCOCC3)c12 [Compound 26, 5-chloro-2-fluoro-N-(4-(3-methyl-4-((2-morpholinoethyl)amino)-1H-pyrazolo[3,4-d]pyrimidin-6-yl)phenyl)benzenesulfonamide] |
| 298 µM (≈ 153 µg/mL) | 3.8 µM (≈ 1.95 µg/mL) | Cc1n[nH]c2nc(-c3ccc(NS(=O)(=O)c4cc(F)ccc4F)cc3)nc(NCCN3CCCC3)c12 [Compound 33, 2,5-difluoro-N-(4-(3-methyl-4-((2-(pyrrolidin-1-yl)ethyl)amino)-1H-pyrazolo[3,4-d]pyrimidin-6-yl)phenyl)benzenesulfonamide] |
| 174 µM (≈ 93.1 µg/mL) | 0.7 µM (≈ 0.374 µg/mL) | Cc1n[nH]c2nc(-c3ccc(NS(=O)(=O)c4cc(Cl)ccc4F)cc3)nc(O[C@H]3CCNC[C@H]3F)c12 [Compound 46, 5-chloro-2-fluoro-N-(4-(4-(((3R,4S)-3-fluoropiperidin-4-yl)oxy)-3-methyl-1H-pyrazolo[3,4-d]pyrimidin-6-yl)phenyl)benzenesulfonamide] |
| 211 µM (≈ 113 µg/mL) | 16.8 µM (≈ 8.99 µg/mL) | Cc1n[nH]c2nc(-c3ccc(NS(=O)(=O)c4cc(Cl)ccc4F)cc3)nc(O[C@H]3CCNC[C@@H]3F)c12 [Compound 47, 5-chloro-2-fluoro-N-(4-(4-(((3S,4S)-3-fluoropiperidin-4-yl)oxy)-3-methyl-1H-pyrazolo[3,4-d]pyrimidin-6-yl)phenyl)benzenesulfonamide] |
| 178 µM (≈ 89.5 µg/mL) | 63.6 µM (≈ 32 µg/mL) | Cc1n[nH]c2nc(-c3ccc(NS(=O)(=O)c4cc(Cl)ccc4F)cc3)nc(O[C@H]3CCNC3)c12 [Compound 48, 5-chloro-2-fluoro-N-(4-{3-methyl-4-[(3S)-pyrrolidin-3-yloxy]-1H-pyrazolo[3,4-d]pyrimidin-6-yl}phenyl)benzenesulfonamide] |
| 265 µM (≈ 143 µg/mL) | 0.27 µM (≈ 0.146 µg/mL) | Cc1n[nH]c2nc(-c3ccc(NS(=O)(=O)c4cc(Cl)ccc4F)cc3)nc(O[C@@H]3CNCC3(F)F)c12 [Compound 49, 5-chloro-N-(4-{4-[(4,4-difluoropyrrolidin-3-yl)oxy]-3-methyl-1H-pyrazolo[3,4-d]pyrimidin-6-yl}phenyl)-2-fluorobenzenesulfonamide] |
| 283 µM (≈ 151 µg/mL) | 11.3 µM (≈ 6.05 µg/mL) | Cc1n[nH]c2nc(-c3ccc(NS(=O)(=O)c4cc(Cl)ccc4F)cc3)nc(O[C@@H]3CCNC[C@H]3F)c12 [Compound 53, 5-chloro-2-fluoro-N-[4-(4-{[(3R,4R)-3-fluoropiperidin-4-yl]oxy}-3-methyl-1H-pyrazolo[3,4-d]pyrimidin-6-yl)phenyl]benzenesulfonamide] |
| 244 µM (≈ 126 µg/mL) | 1.37 µM (≈ 0.708 µg/mL) | Cc1n[nH]c2nc(-c3ccc(NS(=O)(=O)c4cc(Cl)ccc4F)cc3)nc(OC3CCNCC3)c12 [Compound 55, 5-chloro-2-fluoro-N-{4-[3-methyl-4-(piperidin-4-yloxy)-1H-pyrazolo[3,4-d]pyrimidin-6-yl]phenyl}benzenesulfonamide] |
| 73.7 µM (≈ 40.5 µg/mL) | 0.48 µM (≈ 0.264 µg/mL) | CCN1C[C@H](F)[C@H](Oc2nc(-c3ccc(NS(=O)(=O)c4cc(Cl)ccc4F)cc3)nc3[nH]nc(C)c23)C1 [Compound 56, 5-chloro-N-[4-(4-{[(3R,4S)-1-ethyl-4-fluoropyrrolidin-3-yl]oxy}-3-methyl-1H-pyrazolo[3,4-d]pyrimidin-6-yl)phenyl]-2-fluorobenzenesulfonamide] |
| 262 µM (≈ 140 µg/mL) | 0.92 µM (≈ 0.492 µg/mL) | Cc1n[nH]c2nc(-c3ccc(NS(=O)(=O)c4cc(Cl)ccc4F)cc3)nc(O[C@@H]3CN(C)C[C@@H]3F)c12 [Compound 58, 5-chloro-2-fluoro-N-[4-(4-{[(3R,4S)-4-fluoro-1-methylpyrrolidin-3-yl]oxy}-3-methyl-1H-pyrazolo[3,4-d]pyrimidin-6-yl)phenyl]benzenesulfonamide] |
| 16.2 µM (≈ 8.55 µg/mL) | 0.36 µM (≈ 0.19 µg/mL) | COc1ccnc(S(=O)(=O)Nc2ccc(-c3nc(O[C@@H]4CCN(C)C[C@@H]4F)c4c(C)n[nH]c4n3)cc2)c1 [Compound 62, N-[4-(4-{[(3S,4R)-3-fluoro-1-methylpiperidin-4-yl]oxy}-3-methyl-1H-pyrazolo[3,4-d]pyrimidin-6-yl)phenyl]-4-methoxypyridine-2-sulfonamide] |
| 6.43 µM (≈ 3.85 µg/mL) | < 0.24 µM | Cc1n[nH]c2nc(-c3ccc(NS(=O)(=O)c4cc(Cl)ccc4F)cc3)nc(O[C@@H]3CCN(CC(F)F)C[C@@H]3F)c12 [Compound 64, 5-chloro-N-[4-(4-{[(3S,4R)-1-(2,2-difluoroethyl)-3-fluoropiperidin-4-yl]oxy}-3-methyl-1H-pyrazolo[3,4-d]pyrimidin-6-yl)phenyl]-2-fluorobenzenesulfonamide] |
| 210 µM (≈ 116 µg/mL) | 0.73 µM (≈ 0.403 µg/mL) | [2H]C([2H])([2H])N1CC[C@@H](Oc2nc(-c3ccc(NS(=O)(=O)c4cc(Cl)ccc4F)cc3)nc3[nH]nc(C)c23)[C@@H](F)C1 [Compound 65, 5-chloro-2-fluoro-N-(4-(4-(((3S,4R)-3-fluoro-1-(methyl-d3)piperidin-4-yl)oxy)-3-methyl-1H-pyrazolo[3,4-d]pyrimidin-6-yl)phenyl)benzenesulfonamide] |
| 32.9 µM (≈ 16.4 µg/mL) | 1.51 µM (≈ 0.751 µg/mL) | Cc1n[nH]c2nc(-c3ccc(NS(=O)(=O)c4ccccn4)cc3)nc(O[C@@H]3CCN(C)C[C@@H]3F)c12 [Compound 66, N-[4-(4-{[(3S,4R)-3-fluoro-1-methylpiperidin-4-yl]oxy}-3-methyl-1H-pyrazolo[3,4-d]pyrimidin-6-yl)phenyl]pyridine-2-sulfonamide] |
